Tests used:
[1] = Extraction performance for non-ferrous metal ions (Example 1); assay type: physicochemical; details: 0.2 mol/L in dodecane, 0.01 mol/L sulfate solution, O/A 1:1
Experimental: (§1) In the embodiments of the present application, after extraction, a metal ion concentration of the aqueous phase is analyzed using the inductively coupled plasma optical emission spectroscopy (ICP-OES), and a metal ion concentration of the organic phase is calculated by the difference subtraction method.
(§2) Extractant 191 was dissolved in dodecane to prepare a 0.2 mol/L organic phase, and 0.01 mol/L sulfate solutions of Cu^2+, Zn^2+, Cd^2+, Ni^2+, Co^2+, Mn^2+, Ca^2+, Mg^2+, and Li^+ were prepared as aqueous phases, respectively.

[2] = Separation coefficients between non-ferrous metal ions (Example 1, Comparative Example 3); assay type: physicochemical
Experimental: as §1, §2
This comparative example differs from Example 1 in that Extractant 191 was replaced with extractant Versatic 10 (commercially available, with an acid content of 98%).

[3] = Extraction for a magnesium-enriched nickel chloride solution (Example 5); assay type: physicochemical; details: 0.31 mol/L in dodecane; chloride solution 1.33 g/L Ni, 4 g/L Mg; O/A 1:1
Experimental: as §1
Extractant 191 was dissolved in dodecane to prepare a 0.31 mol/L organic phase, and an aqueous phase was the magnesium-enriched nickel chloride solution containing 1.33 g/L Ni and 4 g/L Mg.

[4] = Back extraction of organic phase loaded with rare earth ions (Example 8); assay type: physicochemical; details: organic phase loaded with 0.10 mol/L Lu; 1.0 mol/L hydrochloric acid; O/A 1:1
[5] = Extraction performance for trivalent ions (Example 2); assay type: physicochemical; details: 0.1 mol/L in toluene, 0.005 mol/L chloride solution, O/A 1:1
Experimental: as §1
(§3) The Extractant 195 was dissolved in toluene to prepare a 0.1 mol/L organic phase, and 0.005 mol/L chloride solutions of Fe^3+, Ga^3+, In^3+, Sc^3+, Cr^3+, Al^3+, Lu^3+, Ho^3+, and Gd^3+ were prepared as aqueous phases, respectively.

[6] = Separation coefficients between trivalent ions (Example 2); assay type: physicochemical
Experimental: as §1, §3

[7] = Extraction from a battery material solution (Example 3, Comparative Example 4); assay type: physicochemical; details: 0.6 mol/L in Escaid 110
Experimental: as §1
Extractant 196 was dissolved in Escaid 110 to prepared a 0.6 mol/L organic phase, and the battery material solution contained Ni (46.20 g/L), Co (20.56 g/L), Mn (23.93 g/L), Ca (0.43 g/L), and Mg (0.21 g/L).
The extractant was dissolved in Escaid 110 and prepared to a 0.6 mol/L organic phase, and a battery material solution contained Ni (46.20 g/L), Co (20.56 g/L), Mn (23.93 g/L), Ca (0.43 g/L), and Mg (0.21 g/L). […] By observing the experimental phenomenon where the extractant exists in the battery material solution system, it can be seen that when the aqueous phase equilibrium pH is greater than 5.33, the phase separation phenomenon becomes worse, the aqueous phase is turbid and viscous, and the organic phase gradually becomes colorless; it can be seen from FIG. 7 that when the aqueous phase equilibrium pH is greater than 5.33, the extraction capability of the extractant for metal ions decreases.

[8] = Saturation capacity test for Ni^2+ (Example 7); assay type: physicochemical; details: 0.6 mol/L in dodecane, saponified to 60%; repeated contact with 50 g/L NiSO4
Source text: The organic phase was back-extracted and the saturation capacity of Extractant 196 for Ni^2+ was obtained to be about 16.9 g/L.

[9] = Extraction performance for rare earth ions, mixed chloride solution (Example 4); assay type: physicochemical; details: 2 mol/L in dodecane, O/A 1:1, ammonia saponification
Experimental: as §1

[10] = organic phase loaded with Lu; 4 mol/L hydrochloric acid (general practice); cited from earlier work
[11] = pH½, Example 1 / Comparative Example 3 system
[12] = aqueous phase equilibrium pH greater than 5.33, O/A 8:1

SMILES: CCCCCCCCCCC(CCCCCC)C(=O)O (stereo not drawn) [Extractant 191]
- Extraction pH½ for Ca^2+ [1]: 7.32
- Extraction pH½ for Cd^2+ [1]: 6.38
- Extraction pH½ for Co^2+ [1]: 7.00
- Extraction pH½ for Li^+ [1]: 9.75
- Extraction pH½ for Mg^2+ [1]: 7.59
- Extraction pH½ for Mn^2+ [1]: 7.01
- Extraction pH½ for Ni^2+ [1]: 6.85
- Extraction pH½ for Zn^2+ [1]: 5.91
- Extraction pH½ for Cu^2+ ([1]; pH by 6 mol/L NaOH saponification): 4.49
- Separation coefficient Cd^2+ / Ca^2+ ([2]; Cd^2+, row Ca^2+, Example 1 system): 75.86
- Separation coefficient Cd^2+ / Co^2+ ([2]; Cd^2+, row Co^2+, Example 1 system): 17.38
- Separation coefficient Cd^2+ / Mg^2+ ([2]; Cd^2+, row Mg^2+, Example 1 system): 263.03
- Separation coefficient Cd^2+ / Mn^2+ ([2]; Cd^2+, row Mn^2+, Example 1 system): 18.20
- Separation coefficient Cd^2+ / Ni^2+ ([2]; Cd^2+, row Ni^2+, Example 1 system): 8.71
- Separation coefficient Co^2+ / Ca^2+ ([2]; Co^2+, row Ca^2+, Example 1 system): 4.37
- Separation coefficient Co^2+ / Mg^2+ ([2]; Co^2+, row Mg^2+, Example 1 system): 15.14
- Separation coefficient Co^2+ / Mn^2+ ([2]; Co^2+, row Mn^2+, Example 1 system): 1.05
- Separation coefficients between various ions (all pairs) ([2]; Cu^2+, Zn^2+, Cd^2+, Ni^2+, Co^2+, Mn^2+, Ca^2+, Mg^2+, Li^+): greater than 1
- Separation coefficient Cu^2+ / Ca^2+ ([2]; Cu^2+, row Ca^2+, Example 1 system): 457088.19
- Separation coefficient Cu^2+ / Cd^2+ ([2]; Cu^2+, row Cd^2+, Example 1 system): 6025.60
- Separation coefficient Cu^2+ / Co^2+ ([2]; Cu^2+, row Co^2+, Example 1 system): 104712.85
- Separation coefficient Cu^2+ / Mg^2+ ([2]; Cu^2+, row Mg^2+, Example 1 system): 1584893.19
- Separation coefficient Cu^2+ / Mn^2+ ([2]; Cu^2+, row Mn^2+, Example 1 system): 109647.82
- Separation coefficient Cu^2+ / Ni^2+ ([2]; Cu^2+, row Ni^2+, Example 1 system): 52480.75
- Separation coefficient Cu^2+ / Zn^2+ ([2]; Cu^2+, row Zn^2+, Example 1 system): 691.83
- Extraction order of ions (FIG. 1) ([2]; E%-pH curves, Example 1): extracts nickel and cobalt ions in order before calcium and magnesium
- Separation coefficient Ni^2+ / Ca^2+ ([2]; Ni^2+, row Ca^2+, Example 1 system): 8.71
- Separation coefficient Ni^2+ / Co^2+ ([2]; Ni^2+, row Co^2+, Example 1 system): 2.00
- Separation coefficient Ni^2+ / Mg^2+ ([2]; Ni^2+, row Mg^2+, Example 1 system): 30.20
- Separation coefficient Ni^2+ / Mn^2+ ([2]; Ni^2+, row Mn^2+, Example 1 system): 2.09
- Separation coefficient Zn^2+ / Ca^2+ ([2]; Zn^2+, row Ca^2+, Example 1 system): 660.69
- Separation coefficient Zn^2+ / Cd^2+ ([2]; Zn^2+, row Cd^2+, Example 1 system): 8.71
- Separation coefficient Zn^2+ / Co^2+ ([2]; Zn^2+, row Co^2+, Example 1 system): 151.36
- Separation coefficient Zn^2+ / Mg^2+ ([2]; Zn^2+, row Mg^2+, Example 1 system): 2290.87
- Separation coefficient Zn^2+ / Mn^2+ ([2]; Zn^2+, row Mn^2+, Example 1 system): 158.49
- Separation coefficient Zn^2+ / Ni^2+ ([2]; Zn^2+, row Ni^2+, Example 1 system): 75.86
- Separation coefficient Ca^2+ / Mg^2+ ([2]; column Ca^2+, row Mg^2+, Example 1 system): 3.47
- Separation coefficient Mn^2+ / Ca^2+ ([2]; column Mn^2+, row Ca^2+, Example 1 system): 4.17
- Separation coefficient Mn^2+ / Mg^2+ ([2]; column Mn^2+, row Mg^2+, Example 1 system): 14.45
- βNi/Ca (separation coefficient) [2, 11]: 8.71
- βNi/Co (separation coefficient) [2, 11]: 2.00
- βNi/Mg (separation coefficient) [2, 11]: 30.2
- βNi/Mn (separation coefficient) [2, 11]: 2.09
- βNi/Zn (separation coefficient) [2, 11]: 75.86
- Separation coefficients higher compared with Versatic 10 ([2]; same test condition): 20-30%
- Extraction order of nickel and magnesium (FIG. 6) [3]: extracts nickel in order before magnesium
- Separation coefficient between nickel and magnesium [3]: about 833

SMILES: CCCCCCCCC(CC)C(=O)O (stereo not drawn) [Extractant 192]
- Back extraction rate [4]: greater than 99%

SMILES: CCCCCCCC(CCCCC)C(=O)O (stereo not drawn) [Extractant 195]
- Extraction pH½ for Al^3+ [5]: 3.60
- Extraction pH½ for Cr^3+ [5]: 3.03
- Extraction pH½ for Ga^3+ [5]: 2.60
- Extraction pH½ for Gd^3+ [5]: 5.46
- Extraction pH½ for Ho^3+ [5]: 5.26
- Extraction pH½ for In^3+ [5]: 2.69
- Extraction pH½ for Lu^3+ [5]: 5.06
- Extraction pH½ for Sc^3+ [5]: 2.97
- Extraction pH½ for Fe^3+ ([5]; pH by 8 mol/L NaOH saponification): 1.94
- Separation coefficients between various ions (all pairs) ([6]; Fe^3+, Ga^3+, In^3+, Sc^3+, Cr^3+, Al^3+, Lu^3+, Ho^3+, Gd^3+): greater than 1
- Separation coefficient Fe^3+ / Al^3+ ([6]; Fe^3+, row Al^3+, Example 2 system): 95499.26
- Separation coefficient Fe^3+ / Cr^3+ ([6]; Fe^3+, row Cr^3+, Example 2 system): 1862.09
- Separation coefficient Fe^3+ / Ga^3+ ([6]; Fe^3+, row Ga^3+, Example 2 system): 95.50
- Separation coefficient Fe^3+ / In^3+ ([6]; Fe^3+, row In^3+, Example 2 system): 177.83
- Separation coefficient Fe^3+ / Sc^3+ ([6]; Fe^3+, row Sc^3+, Example 2 system): 1230.27
- Separation coefficient Ga^3+ / Al^3+ ([6]; Ga^3+, row Al^3+, Example 2 system): 1000.00
- Separation coefficient Ga^3+ / Cr^3+ ([6]; Ga^3+, row Cr^3+, Example 2 system): 19.50
- Separation coefficient Ga^3+ / In^3+ ([6]; Ga^3+, row In^3+, Example 2 system): 1.86
- Separation coefficient Ga^3+ / Sc^3+ ([6]; Ga^3+, row Sc^3+, Example 2 system): 12.88
- Separation coefficient In^3+ / Al^3+ ([6]; In^3+, row Al^3+, Example 2 system): 537.03
- Separation coefficient In^3+ / Cr^3+ ([6]; In^3+, row Cr^3+, Example 2 system): 10.47
- Separation coefficient In^3+ / Sc^3+ ([6]; In^3+, row Sc^3+, Example 2 system): 6.92
- Separation coefficient Cr^3+ / Al^3+ ([6]; column Cr^3+, row Al^3+, Example 2 system): 51.29
- Separation coefficient Ho^3+ / Gd^3+ ([6]; column Ho^3+, row Gd^3+, Example 2 system): 3.98
- Separation coefficient Lu^3+ / Gd^3+ ([6]; column Lu^3+, row Gd^3+, Example 2 system): 15.85
- Separation coefficient Lu^3+ / Ho^3+ ([6]; column Lu^3+, row Ho^3+, Example 2 system): 3.98
- Separation coefficient Sc^3+ / Al^3+ ([6]; column Sc^3+, row Al^3+, Example 2 system): 77.62
- Separation coefficient Sc^3+ / Cr^3+ ([6]; column Sc^3+, row Cr^3+, Example 2 system): 1.51

SMILES: CCCCCCCCC(CCCCCC)C(=O)O (stereo not drawn) [Extractant 196]
- Extraction of Ni, Co and Mn from the battery material solution ([7]; O/A 8:1, pH greater than 6.8): almost completely extracted
- Extraction rate of Ca and Mg from the battery material solution ([7]; O/A 8:1, pH greater than 6.8): low extraction rate
- Extraction of Ni, Co and Mn from the battery material solution ([7]; pH less than 7.2, O/A 5:1 and 8:1): selectively extracted
- Saturation capacity for Ni^2+ [8]: about 16.9 g/L
- Extraction ability for rare earth ions (FIG. 5) [9]: gradually decreases from heavy rare earths to light rare earths

SMILES: CCCCC(CC)COP(=O)(O)CC(CC)CCCC (stereo not drawn) [Extractant P507]
- Primary back extraction rate [10]: about 80%

SMILES: CCCCCCCCCCCCCCCCCC(=O)O [stearic acid, reference compound]
- Extraction capability for metal ions (FIG. 7) [7, 12]: decreases
- Phase separation phenomenon [7, 12]: becomes worse
